Measurements: patent US9156824B2, “CDC7 inhibitors” (Eli Lilly and Company, priority 2013, dated 2015)
Marks after values point to notes of the source that are not given here.

Experiments:
SW620 xenograft tumors = experiment: Antitumor efficacy in human colorectal carcinoma SW620 mouse xenograft model; type: in vivo; details: for % T/C day 16: SW620 xenograft
Method: (§1) The in vivo anticancer activity of Example 4 is studied in human colorectal adenocarcinoma cell line SW620 mouse xenograft tumor model which is predicted to be sensitive based on in vitro cell counting proliferative assay data described above. The SW620 cell line is obtained from American Type Culture Collection (ATCC) and is cultured in Leibovitz's L-15 Medium with 10% fetal bovine serum following ATCC instructions. SW620 cell suspension (5.0×10^6/0.2 mL) is injected subcutaneously to the right flank of each female athymic Balb/c nude mice. The mice (5-6 weeks old at arrival) are obtained from Shanghai Sippr-bk Laboratory Animals Ltd. Upon receipt and throughout the study, the animals are housed 5 animals per cage in appropriately sized solid-bottom cages with contact bedding Animals are acclimated for 7 days prior to implantation of the SW620 cells. Animals are fed with Shanghai Laboratory Animal Center certified Rodent Diet with 23% Protein ad libitum and autoclaved tap water is provided ad libitum. The animal room is maintained on a 12-hour light/dark cycle. When the tumor volume reaches an average of 154.9 mm^3 (9 days post tumor implantation), the tumor bearing animals are randomly grouped into 9 groups (8 animals/group) with similar mean tumor volume and body weight. The average body weight of the tumor-bearing mice is 17.3 g. The compound is formulated in HEC 1% w/v, P80 0.25% v/v, and antifoam 1520-US 0.025% v/v in deionized water by probe sonication for 15 minutes on ice and compound formulation is prepared daily for animal dosing. The formulated compound is administered at 10.4, 20.8 and 31.2 mg/kg doses (containing 10, 20 and 30 mg/kg active pharmaceutical ingredient API, respectively) twice a day (BID) by oral gavage (0.1 mL/20 g) for 2 weeks. The BID dosing is performed about 8 hours apart (approximately 9 am and 5 pm each day). The vehicle is also given BID as the control arm of the study. Tumor volume and body weight are measured 3 times a week in a blinded manner. Tumor volume is determined by caliper measurements (mm) and using the formula for an ellipsoid sphere: tumor volume (mm^3)=length×width^2/2, where length and width refer to the larger and smaller perpendicular dimensions collected at each measurement. The animal behavior and animal health are monitored twice a day during dosing period. The study is terminated on day 28 post treatment initiation.
(§2) The statistical analysis of the tumor volume data begins with a data transformation to a log scale to equalize variance across time and treatment groups. The log volume data are analyzed with a two-way repeated measures analysis of variance by time and treatment using the MIXED procedures in SAS software (Version 9.3). The correlation model for the repeated measures is Spatial Power. Treated groups are compared to the control group at each time point. The MIXED procedure is also used separately for each treatment group to calculate adjusted means and standard errors at each time point. Both analyses account for the autocorrelation within each animal and the loss of data that occurs when animals with large tumors are removed from the study early. The adjusted means and standard errors are plotted for each treatment group versus time. The analysis comparing the treated groups to the control groups at each time point uses the log 10 tumor volumes and produces the p-values. For statistical significance of p-values shown, “***”=P<0.001.
(§3) If T>T0, the Delta T/C, % calculation is used. […]

[1] = as above; type: in vivo; details: female, athymic Balb/c nude, mouse, in vivo, po; BID orally for 2 weeks, tumor-bearing nude mice; read-out: maximum tolerated dose
Method: as §1, §2, §3

CDC7/DBF4 = target: T1, CDC7/DBF4 (Homo sapiens, UniProt O00311); experiment: CDC7/DBF4 in vitro enzyme assay (Transcreener Kinase ADP-FP); type: biochemical; details: ATP 5 μM, MCM2 400 nM, 60 minutes, read-out: IC50 against CDC7/DBF4 kinase
T1 construct: host or cells: insect cells
T1 sequence (O00311 whole entry): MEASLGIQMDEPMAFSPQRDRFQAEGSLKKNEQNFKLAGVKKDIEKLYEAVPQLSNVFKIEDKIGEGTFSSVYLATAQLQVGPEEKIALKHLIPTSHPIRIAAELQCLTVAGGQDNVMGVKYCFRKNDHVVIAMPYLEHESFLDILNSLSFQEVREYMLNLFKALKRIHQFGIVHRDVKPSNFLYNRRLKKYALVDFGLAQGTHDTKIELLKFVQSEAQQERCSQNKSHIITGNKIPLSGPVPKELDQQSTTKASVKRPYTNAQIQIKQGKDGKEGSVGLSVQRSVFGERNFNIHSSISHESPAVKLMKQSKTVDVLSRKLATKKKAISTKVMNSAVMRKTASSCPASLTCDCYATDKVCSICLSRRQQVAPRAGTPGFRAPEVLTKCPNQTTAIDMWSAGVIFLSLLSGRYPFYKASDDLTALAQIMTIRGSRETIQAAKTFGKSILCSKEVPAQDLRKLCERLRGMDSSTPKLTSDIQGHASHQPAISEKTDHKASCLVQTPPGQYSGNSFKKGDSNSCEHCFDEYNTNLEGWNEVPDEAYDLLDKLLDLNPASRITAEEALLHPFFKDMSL
T1 sequence (Q9UBU7 whole entry partner): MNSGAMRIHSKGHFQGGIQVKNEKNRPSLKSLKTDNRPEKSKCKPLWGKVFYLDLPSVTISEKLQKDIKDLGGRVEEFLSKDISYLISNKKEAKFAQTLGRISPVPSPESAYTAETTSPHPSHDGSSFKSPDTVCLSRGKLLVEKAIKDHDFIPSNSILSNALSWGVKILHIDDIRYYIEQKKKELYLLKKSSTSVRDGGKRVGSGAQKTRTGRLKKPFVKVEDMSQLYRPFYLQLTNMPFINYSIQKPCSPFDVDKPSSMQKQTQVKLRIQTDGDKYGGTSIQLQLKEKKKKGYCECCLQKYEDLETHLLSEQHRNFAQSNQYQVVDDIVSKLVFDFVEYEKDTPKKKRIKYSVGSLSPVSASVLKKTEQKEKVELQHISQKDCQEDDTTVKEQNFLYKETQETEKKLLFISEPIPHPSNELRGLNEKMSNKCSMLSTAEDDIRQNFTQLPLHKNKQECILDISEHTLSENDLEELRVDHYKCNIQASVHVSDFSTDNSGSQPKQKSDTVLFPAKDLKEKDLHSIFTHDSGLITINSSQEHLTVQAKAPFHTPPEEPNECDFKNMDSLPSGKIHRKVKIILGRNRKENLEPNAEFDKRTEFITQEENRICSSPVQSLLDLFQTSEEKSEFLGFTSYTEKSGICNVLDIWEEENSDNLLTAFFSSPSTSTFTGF
Method: The Transcreener™ Kinase ADP-FP assay is used to determine compound IC50 values against CDC7/DBF4 kinase. The Kinase ADP-FP assay assesses the activity of CDC7/DBF4 in the presence of compound inhibitors by measuring the concentration of ADP formed in a kinase reaction. The kinase reaction is performed using a 25 microliter reaction volume in 96 well assay plate. For the ADP-FP assay, the reagents are added to obtain the final reaction conditions of HEPES (25 mM) pH 7.5, 0.03% Triton® X-100, magnesium chloride (10 mM), DTT (1 mM), MCM2 (400 nM) (Amino Acid 1-209, a physiological substrate of CDC7/DBF4), spermine (4 mM), CDC7/DBF4 (2,640 ng/mL) (recombinant human CDC7/DBF4 expressed in insect cells), 4% dimethyl sulfoxide and serial dilutions of compound (diluted 1:3 from 20,000 nM to 1 nM). Enzyme and substrate is added to compound followed by ATP to 5 μM to start the reaction. The plates are incubated at room temperature for 60 minutes.
For the ADP-FP format add 25 microliters of a quench detection reagent containing HEPES (52 mM) pH 7.5, EDTA (20 mM), sodium chloride (0.4 M), polyoxyethyleneglycol dodecyl ether (0.02%) (BRIJ-35™), anti-ADP antibody (10 μg/mL), and ADP (4 nM) Transcreener® ADP Alexa Fluor® 633 tracer to quench the reaction. The plates are incubated for 1 hour, and then read in a Wallac EnVision™ 2104 Multilabel Reader (PerkinElmer) in Fluorescence Polarization mode using polarizing filters of Ex620nm and Em688nm wavelength. Millipolarization (mP) raw data is converted to micromolar ADP using a prepared ADP/ATP standard curve starting at 5 μM ADP 1:1 serial dilution in reaction buffer to 0.0025 μM ADP. The IC50 value for each compound is derived using percent inhibition data calculated from the μM ADP reaction data relative to on-plate controls (DMSO versus 100 mM EDTA inhibited enzyme controls). The percent inhibition and ten-point compound concentration data is then fitted to a four-parameter logistic equation.

CC1(c2ncncc2F)NC(=O)c2cc(-c3cn[nH]c3)ccc21 (single isomer, unassigned; isomer 2) [Example 4, 3-(5-Fluoropyrimidin-4-yl)-3-methyl-6-(1H-pyrazol-4-yl)isoindolin-1-one, Isomer 2, Hydrate]
% T/C day 16 (SW620 xenograft tumors; 10.4 mg/kg BID × 14, orally): 26.1*** %
% T/C day 16 (SW620 xenograft tumors; 20.8 mg/kg BID × 14, orally): 5.7*** %
% T/C day 16 (SW620 xenograft tumors; 31.2 mg/kg BID × 14, orally, negative value = regression): −66.1*** %
tumor growth after dosing cessation (SW620 xenograft tumors; 31.2 mg/kg BID, 2 weeks after dosing cessation): no significant tumor growth
MTD at 2 weeks [1]: 31.2 mg/kg
IC50 (CDC7/DBF4): 3.3 nM
